Results as given in US20120108557A1, “FLUOROQUINOLONE DERIVATIVES FOR OPHTHALMIC APPLICATIONS” (ALCON RESEARCH, LTD., priority 2008, published 2012).

What was measured:
Format in all cases: cell-based
[1] = system: Stenotrophomonas maltophilia; test: In vitro antimicrobial activity, agar dilution MIC
Description: (§1) The activity of the compounds of the present invention was evaluated using an in vitro assay. Microorganisms were prepared from growth on agar media, in broth culture, or from thawed cryopreserved cultures. Fungal cultures were filtered to remove mycelial elements.
(§2) Using Mueller Hinton II Broth, 0.9% saline or other appropriate media, a suspension of each culture was prepared and adjusted to a turbidity equivalent to that of a 0.5 McFarland Standard. (Cultures adjusted to the 0.5 McFarland Standard generally contain approximately 1.0×10^8 CFU/mL). The adjusted suspension for each culture was diluted 1:10 in the appropriate media so that the inoculum concentration approximates 1.0×10^7 CFU/mL.
(§3) The antimicrobial agent to be tested was weighed and diluted with a volume of sterile distilled water calculated to yield the necessary starting concentration. Serial 1:2 dilutions of the antimicrobial agent in sterile distilled water were prepared (approximately 10-12 test concentrations comprise a reasonable experimental range). A known amount of each antimicrobial dilution was combined with an aliquot of agar medium calculated to yield the desired final antimicrobial test concentration and dispensed onto plates.
(§4) The amount of antimicrobial agent to be weighed was determined using the following equation: […]
(§5) Antimicrobial stock solutions were prepared at concentrations 5-10 times the highest concentration to be tested (routinely 1024 μg/mL). […] The stock solution was diluted to appropriate concentration using sterile water to form a working solution. The working solution was diluted two-fold, in sterile water, until the desired concentration is obtained.
(§6) Mueller Hinton II agar was prepared as described by the manufacturer. Mueller Hinton II agar may be supplemented with 5% defibrinated sheep blood for testing streptococci. Agar was added to the serially diluted antimicrobial solution in each container. The solutions were mixed thoroughly and poured into petri dishes (about 25 mL/plate). The pH of the agar at 25° C. should be between 7.2 and 7.4.
(§7) At least one inocula control plate was inoculated (agar medium without antimicrobial agent) from each seed plate before inoculating test plates. Test plates were inoculated starting at the lowest concentration and proceeding to the highest concentration. After all test plates were inoculated, an additional control plate (agar medium without antimicrobial agent) was inoculated. The plates were incubated in a non-CO2 incubator (or CO2 incubator depending on growth requirements); 18-24 hours at 32-35° C. was sufficient for most organisms.
(§8) All inoculation points on the agar surface were examined for the presence of growth as compared to the inoculum control plates. The results were summarized and use to determine Minimal Inhibitory Concentrations (MICs): The MIC is the lowest concentration of the antimicrobial agent which prevents visible growth of the organism (negative score).

Enterococcus faecalis = test: In vitro antimicrobial activity, agar dilution MIC
Description: as §1, §2, §3, §4, §5, §6, §7, §8

Morganella morganii = test: In vitro antimicrobial activity, agar dilution MIC
Description: as §1, §2, §3, §4, §5, §6, §7, §8

Serratia marcescens = test: In vitro antimicrobial activity, agar dilution MIC
Description: as §1, §2, §3, §4, §5, §6, §7, §8

Pseudomonas aeruginosa = test: In vitro antimicrobial activity, agar dilution MIC
Description: as §1, §2, §3, §4, §5, §6, §7, §8

MRSA = test: In vitro antimicrobial activity, agar dilution MIC
Description: as §1, §2, §3, §4, §5, §6, §7, §8

Streptococcus pneumoniae = test: In vitro antimicrobial activity, agar dilution MIC
Description: as §1, §2, §3, §4, §5, §6, §7, §8

microorganisms = test: In vitro antimicrobial activity test, whole panel of test organisms; settings: across the test organisms of TABLE 3
Description: as §1, §2, §3, §4, §5
as §6, with “7.4. […]” for “7.4.”

[2] = test organism 41, Stenotrophomonas maltophilia
[3] = test organism 42, Stenotrophomonas maltophilia
[4] = test organism 15, Enterococcus faecalis
[5] = test organism 16, Enterococcus faecalis
[6] = test organism 17, Enterococcus faecalis
[7] = test organism 18, Enterococcus faecalis
[8] = test organism 35, Morganella morganii
[9] = test organism 36, Morganella morganii
[10] = test organism 39, Serratia marcescens
[11] = test organism 40, Serratia marcescens
[12] = test organism 37, Pseudomonas aeruginosa
[13] = test organism 38, Pseudomonas aeruginosa
[14] = test organism 19, Streptococcus pneumoniae
[15] = test organism 20, Streptococcus pneumoniae

Question: With Nc1c(F)c(N2CC3CCCNC3C2)c(F)c2c1c(=O)c(C(=O)O)cn2C1CC1 (racemic) [Compound 3 (racemic)] as the compound, how does the “Minimal Inhibitory Concentration (MIC)” value [1, 2] read?
Answer: 4

Question: And the “Minimal Inhibitory Concentration (MIC)” value [1, 3]?
Answer: ≦0.03

Question: And the “Minimal Inhibitory Concentration (MIC)” value (Enterococcus faecalis; [4])?
Answer: 0.125

Question: And the “Minimal Inhibitory Concentration (MIC)” value (Enterococcus faecalis; [5])?
Answer: 1

Question: And the “Minimal Inhibitory Concentration (MIC)” value (Enterococcus faecalis; [6])?
Answer: >4

Question: And the “Minimal Inhibitory Concentration (MIC)” value (Enterococcus faecalis; [7])?
Answer: >2

Question: What about the “Minimal Inhibitory Concentration (MIC)” value (Morganella morganii; [8]) of the same compound?
Answer: 0.5

Question: And the “Minimal Inhibitory Concentration (MIC)” value (Morganella morganii; [9])?
Answer: 1

Question: And the “Minimal Inhibitory Concentration (MIC)” value (Serratia marcescens; [10])?
Answer: 0.5

Question: What about the “Minimal Inhibitory Concentration (MIC)” value (Serratia marcescens; [11]) of the same compound?
Answer: 1

Question: What about the “Minimal Inhibitory Concentration (MIC)” value (Pseudomonas aeruginosa; [12]) of the same compound?
Answer: >4

Question: And the “Minimal Inhibitory Concentration (MIC)” value (Pseudomonas aeruginosa; [13])?
Answer: 2

Question: What about the “Minimal Inhibitory Concentration (MIC)” value (MRSA; test organism 3, MRSA) of the same compound?
Answer: >2

Question: What about the “Minimal Inhibitory Concentration (MIC)” value (MRSA; test organism 4, MRSA) of the same compound?
Answer: 2

Question: And the “Minimal Inhibitory Concentration (MIC)” value (MRSA; test organism 5, MRSA)?
Answer: >2

Question: And the “Minimal Inhibitory Concentration (MIC)” value (Streptococcus pneumoniae; [14])?
Answer: ≦0.03

Question: What about the “Minimal Inhibitory Concentration (MIC)” value (Streptococcus pneumoniae; [15]) of the same compound?
Answer: 0.5

Question: What does the source list for CN1CCCC2CN(c3c(F)cc4c(=O)c(C(=O)O)cn(C5CC5)c4c3F)CC21 (stereo not shown) [Compound 1]?
Answer: antimicrobial activity compared to moxifloxacin (in words) (microorganisms): somewhat better antimicrobial activity against certain microorganisms compared to moxifloxacin, and performed comparably when taken as a whole; Minimal Inhibitory Concentration (MIC) [1, 2]: >4; Minimal Inhibitory Concentration (MIC) [1, 3]: 0.25; Minimal Inhibitory Concentration (MIC) (Enterococcus faecalis; [4]): 0.5; Minimal Inhibitory Concentration (MIC) (Enterococcus faecalis; [5]): >2; Minimal Inhibitory Concentration (MIC) (Enterococcus faecalis; [6]): >4; Minimal Inhibitory Concentration (MIC) (Enterococcus faecalis; [7]): >2; Minimal Inhibitory Concentration (MIC) (Morganella morganii; [8]): 0.5; Minimal Inhibitory Concentration (MIC) (Morganella morganii; [9]): 2; Minimal Inhibitory Concentration (MIC) (Serratia marcescens; [10]): 1; Minimal Inhibitory Concentration (MIC) (Serratia marcescens; [11]): 1; Minimal Inhibitory Concentration (MIC) (Pseudomonas aeruginosa; [12]): >4; Minimal Inhibitory Concentration (MIC) (Pseudomonas aeruginosa; [13]): 2; Minimal Inhibitory Concentration (MIC) (MRSA; test organism 3, MRSA): >2; Minimal Inhibitory Concentration (MIC) (MRSA; test organism 4, MRSA): 4; Minimal Inhibitory Concentration (MIC) (MRSA; test organism 5, MRSA): >2; Minimal Inhibitory Concentration (MIC) (Streptococcus pneumoniae; [14]): 0.125; Minimal Inhibitory Concentration (MIC) (Streptococcus pneumoniae; [15]): 0.5

Question: What does the source list for CN1CCCC2CN(c3cc4c(cc3F)c(=O)c(C(=O)O)cn4C3CC3)CC21 (stereo not shown) [Compound 2]?
Answer: antimicrobial activity compared to moxifloxacin (in words) (microorganisms): generally did not perform as well as moxifloxacin; Minimal Inhibitory Concentration (MIC) [1, 2]: >4; Minimal Inhibitory Concentration (MIC) [1, 3]: 2; Minimal Inhibitory Concentration (MIC) (Enterococcus faecalis; [4]): 1; Minimal Inhibitory Concentration (MIC) (Enterococcus faecalis; [5]): ≦0.25; Minimal Inhibitory Concentration (MIC) (Enterococcus faecalis; [6]): >4; Minimal Inhibitory Concentration (MIC) (Enterococcus faecalis; [7]): >2; Minimal Inhibitory Concentration (MIC) (Morganella morganii; [8]): 1; Minimal Inhibitory Concentration (MIC) (Morganella morganii; [9]): 2; Minimal Inhibitory Concentration (MIC) (Serratia marcescens; [10]): 4; Minimal Inhibitory Concentration (MIC) (Serratia marcescens; [11]): 4; Minimal Inhibitory Concentration (MIC) (Pseudomonas aeruginosa; [12]): >4; Minimal Inhibitory Concentration (MIC) (Pseudomonas aeruginosa; [13]): >4; Minimal Inhibitory Concentration (MIC) (MRSA; test organism 3, MRSA): >2; Minimal Inhibitory Concentration (MIC) (MRSA; test organism 4, MRSA): >4; Minimal Inhibitory Concentration (MIC) (MRSA; test organism 5, MRSA): >2; Minimal Inhibitory Concentration (MIC) (Streptococcus pneumoniae; [14]): 0.5; Minimal Inhibitory Concentration (MIC) (Streptococcus pneumoniae; [15]): ≦0.25

Question: Which results are given for Nc1c(F)c(N2CC3CCCNC3C2)c(F)c2c1c(=O)c(C(=O)O)cn2C1CC1 [Compound 3 (S,S)]?
Answer: Minimal Inhibitory Concentration (MIC) [1, 2]: 2; Minimal Inhibitory Concentration (MIC) [1, 3]: 0.125; Minimal Inhibitory Concentration (MIC) (Enterococcus faecalis; [4]): 0.125; Minimal Inhibitory Concentration (MIC) (Enterococcus faecalis; [5]): 0.5; Minimal Inhibitory Concentration (MIC) (Enterococcus faecalis; [6]): >4; Minimal Inhibitory Concentration (MIC) (Enterococcus faecalis; [7]): >2; Minimal Inhibitory Concentration (MIC) (Morganella morganii; [8]): 0.125; Minimal Inhibitory Concentration (MIC) (Morganella morganii; [9]): 1; Minimal Inhibitory Concentration (MIC) (Serratia marcescens; [10]): 0.5; Minimal Inhibitory Concentration (MIC) (Serratia marcescens; [11]): 1; Minimal Inhibitory Concentration (MIC) (Pseudomonas aeruginosa; [12]): >4; Minimal Inhibitory Concentration (MIC) (Pseudomonas aeruginosa; [13]): 0.5; Minimal Inhibitory Concentration (MIC) (MRSA; test organism 3, MRSA): 1; Minimal Inhibitory Concentration (MIC) (MRSA; test organism 4, MRSA): 2; Minimal Inhibitory Concentration (MIC) (MRSA; test organism 5, MRSA): >2; Minimal Inhibitory Concentration (MIC) (Streptococcus pneumoniae; [14]): 0.125; Minimal Inhibitory Concentration (MIC) (Streptococcus pneumoniae; [15]): ≦0.25
